# Results taken from US20250179017A1 (GUANGDONG NEWOPP BIOPHARMACEUTICALS CO., LTD., priority 2022, published 2025).
# Target: T1, human EP2 (PTGER2) (Homo sapiens, UniProt P43116)
# T1 construct: Cayman Chemical (Human EP2 Reporter Assay Kit)
# Assay: EP2 antagonist assay (HEK-293 CNG membrane potential cAMP assay / 293T SEAP reporter assay, PGE2-stimulated)
# Format: cell-based
# Details: EP2 antagonist activity; concentration for 50% inhibition of signal compared to DMSO
# Source text: 1. The HEK-293 CNG (Cyclic Nucleotide Gated) cell line expressing a modified CNG channel that leads to cell membrane depolarization in response to elevated intracellular cAMP levels, which can be measured using a fluorescent membrane potential dye, was engineered to express human EP2 (PTGER2) or EP4 (EP4R). The resulting cell line ACTOne™ PTGER2 or ACTOne™ EP4R as well as the fluorescent membrane potential dye were purchased from eEnzyme (Gaithersburg, MD, US) and used in this assay. Briefly, cells were plated at 1.2×10^4 cells/well in 20 μL DMEM supplemented with 2% Fetal Bovine Serum (FBS, VWR International), 1x Penicillin/Streptomycin (GenClone), 0.2 μg/mL puromycin (InvivoGen) and 50 μg/mL G418 (InvivoGen) on a 384 well plate (Greiner). The next day, cells were dye-loaded with 20 μL/well of 1x Dye-loading solution (eENZYME) following the manufacturer's instruction. After 2 hours of incubation at room temperature (RT) in the dark, a pre-read was made to obtain the background signals using CLARIOstar plate reader (BMG LABTECH, Germany) with the following filter settings: excitation=530/20 nm, emission=590/20 nm. Next, a serial dilution of compound (plus a DMSO control) were added to the plate (5 μL/well) and the reaction was incubated at RT for 15 min before adding 5 μL of PGE2 to every well for a final concentration of 5 nM. All wells were duplicated. The plate was then further incubated at RT for 30 min prior to a final read with the same machine settings. Background-subtracted signals were used to calculate IC50 values.
# 2. Human EP2 and EP4 Reporter Assay Kits were purchased from Cayman Chemical (Ann Arbor, MI, USA). The assay was performed following the provided User Manual. Briefly, a reverse transfection was performed by seeding 6.0×10^4 of 293T cells (ATCC) to each well of the provided Strip Plate coated with a proprietary transfection complex containing DNA constructs for expressing human EP2 or EP4 and a cAMP response element regulated secreted alkaline phosphatase (SEAP) reporter, in 200 μL DMEM supplemented with 2% FBS and incubated for 20-24 hours at 37° C. with 5% CO2. After the incubation, the culture medium was carefully removed, and the cells were replenished with 150 μL pre-warmed serum-free medium. PGE2 and test compounds were prepared together at 4x the desired final concentration, and 50 μL was added to each assigned well with the final concentration of 13 nM and 2 nM PGE2 for EP2 and EP4 assay, respectively. After 6-8 hours of incubation, 10 μL media from each well was transferred to corresponding well of a new plate, which was then sealed and incubated at 65° C. for 30 min. The plate was then cooled down to RT and 50 μL SEAP substrate was added to each well. Luminescence signal was measured using a CLARIOstar plate reader.
# The IC50 value was determined as the concentration for 50% inhibition of signal compared to DMSO (A: IC50 […]; B: IC50 between 100 nM and 1,000 nM; C: IC50≥1,000 nM).
# T1 sequence (P43116 whole entry): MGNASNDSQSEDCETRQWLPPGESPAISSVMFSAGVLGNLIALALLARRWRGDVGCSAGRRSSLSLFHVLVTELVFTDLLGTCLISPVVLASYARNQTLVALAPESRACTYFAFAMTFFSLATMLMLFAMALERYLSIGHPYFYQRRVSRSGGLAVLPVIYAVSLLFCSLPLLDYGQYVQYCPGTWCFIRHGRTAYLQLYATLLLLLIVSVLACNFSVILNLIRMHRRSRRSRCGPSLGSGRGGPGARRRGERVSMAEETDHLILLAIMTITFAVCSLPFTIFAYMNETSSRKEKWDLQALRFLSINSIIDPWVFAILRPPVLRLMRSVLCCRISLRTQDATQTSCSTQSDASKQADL
row,IC50 [nM],SMILES
1,< 100,"O=C(NC1CC2(C1)CC(C(=O)O)C2)c1cc(-c2ccccc2)cc2[nH]cc(Sc3ccc(C(F)(F)F)cc3)c12 (racemic) [Example 113, (±) 6-(6-phenyl-3-((4-(trifluoromethyl)phenyl)thio)-1H-indole-4-carboxamido)spiro[3.3]heptane-2-carboxylic acid]"
2,< 100,"N#Cc1cccc(-c2cc(C(=O)NC3CC4(C3)CC(C(=O)O)C4)c3c(Sc4ccc(C(F)(F)F)cc4)c[nH]c3c2)c1 (racemic) [Example 114, (±) 6-(6-(3-cyanophenyl)-3-((4-(trifluoromethyl)phenyl)thio)-1H-indole-4-carboxamido)spiro[3.3]heptane-2-carboxylic acid]"
3,100 to 1000,"NC(=O)c1cccc(-c2cc(C(=O)NC3CC4(C3)CC(C(=O)O)C4)c3c(Sc4ccc(C(F)(F)F)cc4)c[nH]c3c2)c1 (racemic) [Example 115, (±) 6-(6-(3-carbamoylphenyl)-3-((4-(trifluoromethyl)phenyl)thio)-1H-indole-4-carboxamido)spiro[3.3]heptane-2-carboxylic acid]"
4,< 100,"CC(c1ccc(C(F)(F)F)cc1)n1ccc2cc(-c3ccccc3)cc(C(=O)NCc3ccc(C(=O)O)cc3)c21 (racemic) [Example 178, (±) 4-((5-phenyl-1-(1-(4-(trifluoromethyl)phenyl)ethyl)-1H-indole-7-carboxamido)methyl)benzoic acid]"
5,< 100,"CC(NC(=O)c1cc(-c2ccccc2)cc2cnn(Cc3cccc(C(F)(F)F)c3)c12)[C@H]1CC[C@H](C(=O)O)CC1 (mixture of isomers) [Example 222, (±) (1r,4r)-4-1-(5-phenyl-1-(3-(trifluoromethyl)benzyl)-1H-indazole-7-carboxamido)ethyl)cyclohexane-1-carboxylic acid]"

# Continued, compound first:
row,SMILES,IC50 [nM]
1,"O=C(NC1CC2(C1)CC(C(=O)O)C2)c1cc(Br)cc2[nH]cc(Sc3ccc(C(F)(F)F)cc3)c12 (racemic) [Example 112, (+) 6-(6-bromo-3-((4-(trifluoromethyl)phenyl)thio)-1H-indole-4-carboxamido)spiro[3.3]heptane-2-carboxylic acid]",100 to 1000
2,"C[C@@H](NC(=O)c1cc(-c2ccc(F)cc2)cc2ccn(Cc3ccc(C(F)(F)F)cc3)c12)c1ccc(C(=O)O)cc1 [Example 3, (R)-4-(1-(5-(4-fluorophenyl)-1-(4-(trifluoromethyl)benzyl)-1H-indole-7-carboxamido)ethyl)benzoic acid]",≥ 1000
3,"C[C@@H](NC(=O)c1cc(-c2ccccc2)cc2ccn(Cc3ccc(C(F)(F)F)cc3)c12)c1ccc(C(=O)O)cc1 [Example 4, (R)-4-(1-(5-phenyl-1-(4-(trifluoromethyl)benzyl)-1H-indole-7-carboxamido)ethyl)benzoic acid]",≥ 1000
4,"O=C(O)c1ccc(C2(NC(=O)c3cc(-c4ccc(F)cc4)cc4ccn(Cc5ccc(C(F)(F)F)cc5)c34)CC2)cc1 [Example 5, 4-(1-(5-(4-fluorophenyl)-1-(4-(trifluoromethyl)benzyl)-1H-indole-7-carboxamido)cyclopropyl)-benzoic acid]",100 to 1000
5,"O=C(O)c1ccc(C2(NC(=O)c3cc(-c4ccccc4)cc4ccn(Cc5ccc(C(F)(F)F)cc5)c34)CC2)cc1 [Example 6, 4-(1-(5-phenyl-1-(4-(trifluoromethyl)benzyl)-1H-indole-7-carboxamido)cyclopropyl)benzoiacid]",100 to 1000
6,"O=C(O)c1ccc(CNC(=O)c2cc(-c3ccc(F)c(F)c3)cc3ccn(Cc4ccc(C(F)(F)F)cc4)c23)cc1 [Example 8, 4-((5-(3,4-difluorophenyl)-1-(4-(trifluoromethyl)benzyl)-1H-indole-7-carboxamido)methyl)benzoic acid]",< 100
7,"O=C(O)c1ccc(CNC(=O)c2cc(-c3cccc(C(F)(F)F)c3)cc3ccn(Cc4ccc(C(F)(F)F)cc4)c23)cc1 [Example 10, 4-((1-(4-(trifluoromethyl)benzyl)-5-(3-(trifluoromethyl)phenyl)-1H-indole-7-carboxamido)methyl)benzoic acid]",100 to 1000
